Experimental data reported in ChEMBL document CHEMBL6153047, “Sulfilimines from a Medicinal Chemist's Perspective: Physicochemical and in Vitro Parameters Relevant for Drug Discovery” (J Med Chem, 2025).
In brackets after ≈: the same amount, converted by molar mass.

What was measured:
[1] = Efflux ratio in human Caco-2 cells measured upto 2 hrs; assay type: ADME, cell-based; details: caco-2, 2 h
[2] = Permeability across apical to basal side in human Caco-2 cells measured upto 2 hrs; assay type: ADME, cell-based; details: caco-2, 2 h
[3] = Aqueous solubility of compound at pH 6.8 incubated for 24 hrs by LC-UV analysis; assay type: physicochemical; details: buffer, pH 6.8, 24 h
[4] = Lipophilicity, logD of compound at pH 7.4 by UPLC-UV-MS analysis; assay type: physicochemical; details: buffer
[5] = Stability in human hepatocytes assessed as hepatic extraction ratio at 1 uM incubated for 6 hrs by HPLC-MS/MS analysis; assay type: ADME, cell-based, Hepatocyte; details: read-out: ERH
[6] = Stability in mouse liver microsomes assessed as hepatic extraction ratio at 1 uM preincubated with compound followed by NADPH addition by LC-MS/MS analysis; assay type: ADME, Microsome; details: read-out: ERH
[7] = Dissociation constant, pKa of compound by UV spectroscopy; assay type: physicochemical
[8] = Stability in human liver microsomes assessed as hepatic extraction ratio at 1 uM preincubated with compound followed by NADPH addition by LC-MS/MS analysis; assay type: ADME, Microsome; details: read-out: ERH
[9] = Apparent permeability of compound incubated for 5 hrs by PAMPA assay; assay type: ADME
[10] = Protein binding in human plasma at 1 uM incubated for 5 hrs by rapid equilibrium dialysis; assay type: ADME, cell-free
[11] = Chemical stability assessed as compound decomposition at pH 4 and 40 degreeC measured after 3 days by HPLC-UV analysis; assay type: physicochemical; details: buffer, time 3 day, read-out: Drug degradation
[12] = Chemical stability assessed as compound decomposition at pH 10 and 40 degreeC measured after 3 days by HPLC-UV analysis; assay type: physicochemical; details: buffer, time 3 day, read-out: Drug degradation
[13] = Chemical stability assessed as compound decomposition at pH 7.4 and 40 degreeC measured after 3 days by HPLC-UV analysis; assay type: physicochemical; details: buffer, time 3 day, read-out: Drug degradation
[14] = Chemical stability assessed as compound decomposition at pH 1 and 40 degreeC measured after 3 days by HPLC-UV analysis; assay type: physicochemical; details: buffer, time 3 day, read-out: Drug degradation

SMILES: C[S+]([O-])c1ccc(C(F)(F)F)cc1 (stereo unspecified)
- Ratio [1]: 0.8
- permeability [2]: 130 10^-6 cm/s
- solubility [3]: > 0.046 mg/mL
- logD [4]: 1.9
- hepatic extraction ratio at 6 h, 1 µM [5]: 0.19

SMILES: CS(=O)(=O)c1ccc(C(F)(F)F)cc1
- solubility [3]: > 0.047 mg/mL
- logD [4]: 2.3

SMILES: CS(=N)(=O)c1ccc(C(F)(F)F)cc1 (stereo unspecified)
- hepatic extraction ratio at 1 µM [6]: < 0.23
- solubility [3]: > 0.05 mg/mL
- logD [4]: 1.5
- hepatic extraction ratio at 6 h, 1 µM [5]: 0.08
- pKa [7]: 2.5
- hepatic extraction ratio at 1 µM [8]: < 0.23

SMILES: Cc1ccc(S(=O)(=O)c2ccccc2)cc1
- Ratio [1]: 0.6
- permeability [2]: 39 10^-6 cm/s
- logD [4]: 3.3
- hepatic extraction ratio at 6 h, 1 µM [5]: 0.78

SMILES: Cc1ccc(NC(=O)c2ccc(P(C)(C)=O)cc2)cc1Nc1nccc(-c2cccnc2)n1
- Papp at 5 h [9]: 0.43 nm/s
- Ratio [1]: > 100
- hepatic extraction ratio at 1 µM [6]: 0.35
- PPB [10]: 83.8%
- solubility [3]: 0.058 mg/mL (≈ 127 µM)
- logD [4]: 1.4
- hepatic extraction ratio at 6 h, 1 µM [5]: < 0.04
- hepatic extraction ratio at 1 µM [8]: < 0.23

SMILES: CC(=O)/N=S(\c1ccc(C(F)(F)F)cc1)C1CC1 (stereo unspecified)
- degraded at 72 h [11]: 8%
- degraded at 72 h [12]: 8%
- Ratio [1]: 0.7
- hepatic extraction ratio at 1 µM [6]: < 0.23
- permeability [2]: 85 10^-6 cm/s
- solubility [3]: 0.038 mg/mL (≈ 138 µM)
- logD [4]: 1.7
- degraded at 72 h [13]: 7%
- hepatic extraction ratio at 6 h, 1 µM [5]: 0.1
- hepatic extraction ratio at 1 µM [8]: < 0.23
- degraded at 72 h [14]: 20%

SMILES: Cc1ccc(S(=N)(=O)c2ccccc2)cc1 (stereo unspecified)
- degraded at 72 h [11]: < 0.5%
- degraded at 72 h [12]: < 0.5%
- Ratio [1]: 0.8
- hepatic extraction ratio at 1 µM [6]: 0.66
- permeability [2]: 93 10^-6 cm/s
- solubility [3]: > 0.047 mg/mL
- degraded at 72 h [13]: < 0.5%
- hepatic extraction ratio at 6 h, 1 µM [5]: 0.46
- pKa [7]: 2.4
- hepatic extraction ratio at 1 µM [8]: 0.45
- degraded at 72 h [14]: < 0.5%

SMILES: FC(F)(F)c1ccc(/S(=N\c2ccccc2)C2CC2)cc1 (stereo unspecified)
- degraded at 72 h [11]: 2%
- degraded at 72 h [12]: 7%
- Ratio [1]: 0.7
- hepatic extraction ratio at 1 µM [6]: > 0.88
- permeability [2]: 43 10^-6 cm/s
- solubility [3]: 0.041 mg/mL (≈ 133 µM)
- logD [4]: 3.5
- degraded at 72 h [13]: 9%
- hepatic extraction ratio at 6 h, 1 µM [5]: 0.73
- pKa [7]: 7.2
- hepatic extraction ratio at 1 µM [8]: > 0.89
- degraded at 72 h [14]: 80%

SMILES: Cc1ccc(S(=O)(=NC(=O)C(C)(C)C)c2ccccc2)cc1 (stereo unspecified)
- degraded at 72 h [11]: 0%
- degraded at 72 h [12]: 0%
- Ratio [1]: 0.7
- hepatic extraction ratio at 1 µM [6]: > 0.88
- permeability [2]: 51 10^-6 cm/s
- solubility [3]: < 0.001 mg/mL
- logD [4]: 4.2
- degraded at 72 h [13]: 0%
- hepatic extraction ratio at 6 h, 1 µM [5]: 0.33
- hepatic extraction ratio at 1 µM [8]: 0.61
- degraded at 72 h [14]: 16%

SMILES: COC(=O)/N=S(\c1ccc(C(F)(F)F)cc1)C1CC1 (stereo unspecified)
- degraded at 72 h [11]: 10%
- degraded at 72 h [12]: 11%
- Ratio [1]: 0.8
- hepatic extraction ratio at 1 µM [6]: 0.38
- permeability [2]: 88 10^-6 cm/s
- solubility [3]: 0.026 mg/mL (≈ 89.3 µM)
- logD [4]: 2.1
- degraded at 72 h [13]: 10%
- hepatic extraction ratio at 6 h, 1 µM [5]: 0.29
- hepatic extraction ratio at 1 µM [8]: < 0.23
- degraded at 72 h [14]: 27%

SMILES: COc1ccc(/S(=N/C(=O)C(C)(C)C)c2ccc(C)cc2)cc1 (stereo unspecified)
- degraded at 72 h [11]: 2%
- degraded at 72 h [12]: 1%
- Ratio [1]: 0.7
- hepatic extraction ratio at 1 µM [6]: > 0.88
- permeability [2]: 72 10^-6 cm/s
- solubility [3]: 0.059 mg/mL (≈ 179 µM)
- logD [4]: 4
- degraded at 72 h [13]: 2%
- hepatic extraction ratio at 6 h, 1 µM [5]: 0.46
- hepatic extraction ratio at 1 µM [8]: 0.44
- degraded at 72 h [14]: < 0.5%

SMILES: CCOC(=O)/C(=S(/NC(=O)C(C)(C)C)c1ccccc1)P(=O)(OCC)OCC (stereo unspecified)
- degraded at 72 h [11]: < 0.5%
- degraded at 72 h [12]: < 0.5%
- Ratio [1]: 1.9
- hepatic extraction ratio at 1 µM [6]: 0.41
- permeability [2]: 25 10^-6 cm/s
- solubility [3]: > 0.087 mg/mL
- logD [4]: 3
- degraded at 72 h [13]: < 0.5%
- hepatic extraction ratio at 1 µM [8]: > 0.23
- degraded at 72 h [14]: 57%

SMILES: COc1ccc(/S(C)=N\C(=O)C(C)(C)C)cc1 (stereo unspecified)
- Ratio [1]: 0.8
- hepatic extraction ratio at 1 µM [6]: 0.65
- permeability [2]: 69 10^-6 cm/s
- logD [4]: 2
- hepatic extraction ratio at 6 h, 1 µM [5]: 0.58
- hepatic extraction ratio at 1 µM [8]: 0.27

SMILES: CC(C)(C)C(=O)/N=S(\c1ccc(C(F)(F)F)cc1)C1CC1 (stereo unspecified)
- degraded at 72 h [11]: 4%
- degraded at 72 h [12]: 3%
- Ratio [1]: 0.7
- hepatic extraction ratio at 1 µM [6]: 0.59
- permeability [2]: 90 10^-6 cm/s
- solubility [3]: 0.051 mg/mL (≈ 161 µM)
- logD [4]: 3.5
- degraded at 72 h [13]: 4%
- hepatic extraction ratio at 6 h, 1 µM [5]: 0.16
- hepatic extraction ratio at 1 µM [8]: < 0.23
- degraded at 72 h [14]: 0.9%

SMILES: Cc1ccc(S(=N)C2CC2)cc1 (stereo unspecified)
- degraded at 72 h [11]: 3%
- degraded at 72 h [12]: 7%
- Ratio [1]: 0.7
- hepatic extraction ratio at 1 µM [6]: < 0.23
- solubility [3]: 0.027 mg/mL (≈ 151 µM)
- logD ([4]; read-out: logD): 0.3
- degraded at 72 h [13]: 0.5%
- hepatic extraction ratio at 6 h, 1 µM [5]: 0.57
- pKa [7]: 10.9
- hepatic extraction ratio at 1 µM [8]: < 0.23
- degraded at 72 h [14]: 8%

SMILES: N#C/N=S(\c1ccc(C(F)(F)F)cc1)C1CC1 (stereo unspecified)
- degraded at 72 h [11]: 9%
- degraded at 72 h [12]: < 0.1%
- Ratio [1]: 0.7
- hepatic extraction ratio at 1 µM [6]: 0.43
- permeability [2]: 100 10^-6 cm/s
- solubility [3]: 0.042 mg/mL (≈ 163 µM)
- logD [4]: 2.2
- degraded at 72 h [13]: < 0.1%
- hepatic extraction ratio at 6 h, 1 µM [5]: 0.18
- hepatic extraction ratio at 1 µM [8]: < 0.23
- degraded at 72 h [14]: 72%

SMILES: CC(=O)/N=S(/c1ccccc1)c1ccc(C)cc1 (stereo unspecified)
- degraded at 72 h [11]: 5%
- degraded at 72 h [12]: 4%
- Ratio [1]: 0.8
- hepatic extraction ratio at 1 µM [6]: 0.63
- permeability [2]: 85 10^-6 cm/s
- solubility [3]: > 0.052 mg/mL
- logD [4]: 2
- degraded at 72 h [13]: 4%
- hepatic extraction ratio at 6 h, 1 µM [5]: 0.26
- hepatic extraction ratio at 1 µM [8]: < 0.23
- degraded at 72 h [14]: 22%

SMILES: COC(=O)C(C(=O)OC)=S(NC(=O)C(C)(C)C)c1ccccc1 (stereo unspecified)
- degraded at 72 h [11]: < 0.1%
- degraded at 72 h [12]: 7%
- Ratio [1]: < 1
- hepatic extraction ratio at 1 µM [6]: 0.63
- permeability [2]: > 10 10^-6 cm/s
- solubility [3]: > 0.076 mg/mL
- logD [4]: 2.5
- degraded at 72 h [13]: 6%
- hepatic extraction ratio at 1 µM [8]: > 0.89
- degraded at 72 h [14]: 58%

SMILES: CCS(=N)c1ccc(C(F)(F)F)cc1 (stereo unspecified)
- degraded at 72 h [11]: 5%
- degraded at 72 h [12]: 97%
- Ratio [1]: 0.9
- hepatic extraction ratio at 1 µM [6]: < 0.23
- logD [4]: 0.7
- degraded at 72 h [13]: 13%
- hepatic extraction ratio at 6 h, 1 µM [5]: 0.17
- hepatic extraction ratio at 1 µM [8]: < 0.23
- degraded at 72 h [14]: 17%

SMILES: N=S(c1ccc(C(F)(F)F)cc1)c1cccnc1 (stereo unspecified)
- degraded at 72 h [11]: 1%
- degraded at 72 h [12]: 1%
- Ratio [1]: 0.9
- hepatic extraction ratio at 1 µM [6]: 0.26
- permeability [2]: 93 10^-6 cm/s
- solubility [3]: 0.049 mg/mL (≈ 181 µM)
- degraded at 72 h [13]: 3%
- hepatic extraction ratio at 6 h, 1 µM [5]: 0.08
- hepatic extraction ratio at 1 µM [8]: < 0.23
- degraded at 72 h [14]: 4%
